These results are taken from ChEMBL document CHEMBL3044722, “Potent enantioselective auxin: indole-3-succinic acid” (2002).

Holding throughout (type): functional
Test [1] concerns Fuchsia. The experiment in a line: Induction of root growth in swingtime Fuchsia hybrida at 10^-7 M after 7 to 34 days relative to indole-3-butyric acid.
For test [2], the system named is Fuchsia. The experiment in a line: Induction of root growth in varigated Fuchsia hybrida at 10^-7 M after 7 to 34 days relative to indole-3-butyric acid.
For test [3], the system named is Fuchsia. The experiment in a line: Induction of root growth in swingtime Fuchsia hybrida at 10^-8 M after 7 to 34 days relative to indole-3-butyric acid.
The subject of test [4] is Fuchsia. Nature of the test: Induction of root growth in varigated Fuchsia hybrida at 10^-8 M after 7 to 34 days relative to indole-3-butyric acid.

Take `O=C(O)C[C@H](C(=O)O)c1c[nH]c2ccccc12`: the Ratio was found to be 5.7 in the test with Fuchsia [1], 3.8 in the test on Fuchsia [2], 4.8 with Fuchsia [3] and 4.6 in the test on Fuchsia [4].

Consider `O=C(O)C[C@@H](C(=O)O)c1c[nH]c2ccccc12`, for which the Ratio in the test with Fuchsia [1] was 5.6; in the test with Fuchsia [2] it was 0.7; with Fuchsia [3] it was 7.1; in the test with Fuchsia [4], 4.4.

Regarding `O=C(O)CC(C(=O)O)c1c[nH]c2ccccc12` (racemic), the Ratio in the test with Fuchsia [1] is listed as 7.

For `O=C(O)Cc1c[nH]c2ccccc12` [INDOLE-3-ACETIC ACID], the Ratio in the test on Fuchsia [1] and in the test on Fuchsia [2] was 0 in each case.
